Where “and” joins values, the source holds several entries; their conditions need not be identical. Equal entries are not always repeated. Calls of active or inactive are those of the source.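 The calls were made as follows: active = compounds giving half or more protection of infected cells from virus-caused growth loss, again on retest; inactive = the rest.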 Where a SMILES comes first, the peptide text is derived from it. The star is where a group is joined. Boc = CC(C)(C)OC(=O)*
Test system: CEM cells HIV-1 protection, formazan growth assay
Test: NCI AIDS Antiviral Assay
Settings: for IC50: measured here: growth of uninfected CEM cells
How it was run: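 Protection of CEM cells against HIV-1 was scored from cell growth (soluble formazan) across five concentrations, with parallel uninfected cells. Lack of protection may reflect toxicity.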

Cc1nc2c(Br)cc(Br)cc2c(=O)n1-c1ccccc1NC1OC(CO)C(O)C(O)C1O (stereo unspecified)
EC50: > 200 µM
IC50: > 200 µM and 105 µM

CCOC(=O)c1[nH]c2c(cc(C=O)c3ccccc32)c1C
EC50: > 200 µM
IC50: 60.3 µM

C(=C(\C[P+](c1ccccc1)(c1ccccc1)c1ccccc1)c1ccccc1)/c1ccccc1
EC50: > 200 µM
IC50: 1 µM

c1ccc(C2=NNc3cccc[n+]3C2)cc1
EC50: > 871 µM
IC50: 447 µM

N#Cc1c(C#N)c(-c2ccccc2)n(/N=C\c2ccccc2)c1N
EC50: > 200 µM
IC50: 14.5 µM

COC(=O)[C@@H]1C(CO)[C@H](n2cc(C)c(=O)[nH]c2=O)C1(C)C (stereo partly specified)
EC50: > 437 µM
IC50: > 437 µM

COC(=O)c1ccc(-c2nc(C#N)c(N)o2)cc1
EC50: > 200 µM
IC50: > 200 µM

Brc1cccc(C=NC23CC4CC(CC(C4)C2)C3)c1
EC50: > 16.2 µM
IC50: > 16.2 µM

COC(=O)C1=CC(=O)C(C(=O)Nc2ccc(OC)cc2)C(c2ccccc2)O1 (stereo unspecified)
EC50: > 7.08 µM
IC50: > 7.08 µM

CC(OC(C)(C)C)[C@H](NC(=O)OCC(Cl)(Cl)Cl)C(=O)O (stereo partly specified)
EC50: > 200 µM
IC50: > 200 µM

NC1=NC(=O)C(CC(=O)Nc2ccc(Cl)cc2Cl)S1 (stereo unspecified)
EC50: > 794 µM
IC50: 372 µM

Cc1ccccc1-c1cc(=O)c2cc(C)c(C)c(C(=O)O)c2o1
outcome: inactive

Cn1c(=O)n2n(c1=O)C1CCC2CC1
EC50: > 1290 µM
IC50: 437 µM

O=C1/C(=C/c2ccc(Cl)cc2)CCc2ccccc21
EC50: > 19.5 µM
IC50: > 19.5 µM

CC1C2C=CC1C(c1c3ccc(=O)c(O)c-3oc3c(O)c(O)ccc13)C2C(=O)O (stereo unspecified)
EC50: 2.04 µM
IC50: > 200 µM

c1ccc(N=c2snc3scc(-c4ccccc4)n23)cc1
EC50: > 23.4 µM
IC50: > 23.4 µM

O=C1NC(Cc2ccccc2)C(=O)N2CCCC12 (stereo unspecified)
EC50: > 1020 µM
IC50: > 1020 µM

Cc1occc1C(=S)Nc1ccc(Cl)c(C(=O)OC(C(C)C)C(C)C)c1
EC50: 0.0912 µM
IC50: 13.2 µM

O=c1cc(N=Nc2ccc(Cl)cc2)[nH]c(=O)[nH]1
EC50: > 2 µM
IC50: 0.851 µM

CCCCCC/C=C\CCCCCCCCC(=O)c1cccc(OC)c1OC
EC50: > 200 µM
IC50: > 200 µM

O=C(O)c1cscc1Cc1cccs1
EC50: > 200 µM
IC50: > 200 µM

COc1ccc(NC(=O)C(/C=N\C(=S)NNC(C)=O)=C(\C)O)cc1
EC50: > 200 µM
IC50: > 200 µM

O=C([O-])C(=O)[N-]CCC[N-]C(=O)C(=O)[N-]CCC[N-]C(=O)C(=O)[O-].[Cu+2].[Cu+2].[Na+]
EC50: > 200 µM
IC50: 17 µM

CN(C)CCN=C1Nc2ccccc2C(=O)N2CSCC12 (stereo unspecified)
EC50: > 200 µM
IC50: > 200 µM

COC(=O)C(C(=O)C(=O)Nc1ccc(C)cc1)c1nc2ccc([N+](=O)[O-])cc2[nH]c1=O (stereo unspecified)
EC50: > 44.7 µM
IC50: > 44.7 µM

Oc1[nH]c2ccccc2c1N=NC(=S)Nc1cccc(Cl)c1
EC50: > 200 µM
IC50: 4.57 µM

CC1=C(C(=O)Nc2ccccc2)C(c2ccc(C(C)C)cc2)C(C(=O)Nc2ccccc2)=C(C)N1
outcome: inactive

O=C(N=Nc1cccc(Cl)c1)NNc1cccc(Cl)c1
EC50: > 200 µM
IC50: 15.5 µM

C1CSCC2(COC2)CS1
EC50: > 1410 µM
IC50: 1320 µM

Clc1ccc(CNc2nc3ccccc3nc2-c2cccs2)c(Cl)c1
EC50: > 9.77 µM
IC50: > 9.77 µM

Cc1cc(=O)n2nc(CCl)sc2n1
EC50: > 200 µM
IC50: 9.33 µM

C=CCCCn1ccc2ccccc21
outcome: inactive

O=C1CCCC/C1=C/C=C/c1ccccc1
EC50: > 64.6 µM
IC50: > 64.6 µM

O=C1NC2C=CN(Cc3ccccc3)C=C2C(=O)N2CCCC12 (stereo unspecified)
EC50: > 6.46 µM
IC50: > 6.46 µM

O=C1SC(c2ccc(Cl)cc2)(c2ccc(Cl)cc2)c2ccccc21
EC50: > 200 µM
IC50: 93.3 µM

O=c1[nH]c2nccnc2c2c([N+](=O)[O-])cccc12
EC50: > 200 µM
IC50: > 200 µM

COc1ccc(C2SCc3nc4ccccc4n32)cc1 (stereo unspecified)
outcome: inactive

CCCCCCCCCCCCCCCCN1c2ccccc2C(C)(C)C12C=Cc1cccc([N+](=O)[O-])c1O2 (stereo unspecified)
EC50: > 200 µM
IC50: > 200 µM

CSc1nc2c(c(=O)n1C)N=C(c1ccccc1)[C@H](C(CC(=O)c1ccccc1)c1ccccc1)C(c1ccccc1)N2 (stereo partly specified)
EC50: > 200 µM
IC50: 47.9 µM

O=C1/C(=C/c2cccc(Cl)c2)CCCc2ccccc21
EC50: > 200 µM
IC50: 11.7 µM

Cn1c(=O)cc(C=Nc2ccc(N=Nc3ccccc3)cc2)c2ccccc21
EC50: > 200 µM
IC50: 1.51 µM

CC12CCC(CC1=O)C2(C)CCC(N)=O (stereo unspecified)
EC50: > 200 µM
IC50: > 200 µM

CNc1ncnc2c1nc(NC1CCCC1)n2C1OC(CO)C(O)C1O (stereo unspecified)
EC50: > 200 µM
IC50: > 200 µM

CN1C(c2ccccc2)(c2ccccc2)c2ccccc2S1(=O)=O
EC50: > 200 µM
IC50: 50.1 µM

CC12CCC(=O)N1c1ccccc1N2 (stereo unspecified)
EC50: > 501 µM
IC50: > 501 µM

O=c1[nH]c2ccc([N+](=O)[O-])cc2nc1/C=C(\O)c1ccccc1
EC50: > 200 µM
IC50: > 200 µM

O=C(O)c1ccc(CS(=O)(=O)c2ccc(Cl)cc2)cc1
EC50: > 794 µM
IC50: > 794 µM

Cc1cc(C)c2c(n1)sc1c(=O)n(N)c(C)nc12
outcome: inactive

COc1ccc(I)c(CCC(CO)C2=CCC3(CC2)OCCO3)c1 (stereo unspecified)
EC50: > 16.2 µM
IC50: > 16.2 µM

COc1ccc2c3c1OC1C(OC)(OC)CC4(C=C2)CN(C)CCC314 (stereo unspecified)
outcome: inactive

O=C1CNN=C(Cn2nc(-c3ccccc3)c3ccccc3c2=O)N1
EC50: > 6.03 µM
IC50: > 6.03 µM

COc1cc2c(cc1O)Cc1c-2[n+](C)cc2cc(OC)c(OC)cc12
EC50: > 347 µM
IC50: 1.62 µM

CCOC(=O)c1nc2ccccc2nc1NCc1ccc(Cl)cc1Cl
EC50: > 100 µM
IC50: 72.4 µM

O=c1c(O)c(-c2ccc(O)cc2)oc2cc(O)cc(O)c12
EC50: > 97.7 µM
IC50: 51.3 µM

BrC12c3ccccc3Sc3ccccc3C1(Br)c1ccccc12 (stereo unspecified)
outcome: inactive

Cc1cc(=O)n(-c2c(C)cccc2Cl)c(/C=C(\O)c2ccncc2)n1
EC50: > 4.07 µM
IC50: > 4.07 µM

CC1=NN(C(=O)CC(=O)N(C(=O)c2ccccc2)c2ccc(Cl)cc2)C(=O)C1N=Nc1ccc([N+](=O)[O-])cc1 (stereo unspecified)
EC50: 174 µM
IC50: > 200 µM

CN(C)c1ccc(NN=C2SC(=Nc3ccccc3)C(=Nc3ccccc3)S2)cc1
EC50: > 200 µM
IC50: 8.13 µM

Cc1c(N2CCN(C)CC2)nc2ccc(Cl)cc2c1-c1ccccc1
EC50: > 14.8 µM
IC50: > 14.8 µM

CN(C)CCN(C)c1ccc2c(=O)n(CCN(C)C)c(=O)n3c4ccccc4c(=O)c1c23
EC50: > 0.2 µM
IC50: 0.11 µM

CCN(CC)C(=O)c1ccc(C)c(N=NN(C)C)c1
EC50: > 501 µM
IC50: 316 µM

CC1=C(O)C(=O)C(c2c(C)cc(C)c(Br)c2C)=C(O)C1=O
EC50: > 115 µM
IC50: 15.5 µM

COc1ccc2c(c1OC)OCC(CN(C)C)C2=O (stereo unspecified)
outcome: inactive

COc1ccccc1-c1cc(B(O)O)ccc1OC
EC50: > 200 µM
IC50: 40.7 µM

Cn1cnc2nc[nH]c2c1=N
EC50: > 200 µM
IC50: > 200 µM

CN1CCN(C2=NCCO2)CC1
EC50: > 200 µM
IC50: > 200 µM

CC(=O)N1c2cc(N=NN(C)C)ccc2NC(=O)CC1C (stereo unspecified)
EC50: > 200 µM
IC50: > 200 µM

COC(=O)C(Cc1c[nH]c2ccccc12)NC(=O)C(Cc1c[nH]c2ccccc12)NC(=O)C(Cc1c[nH]c2ccccc12)NC(=O)C(Cc1c[nH]c2ccccc12)NC(=O)C(Cc1c[nH]c2ccccc12)NC(=O)C(Cc1c[nH]c2ccccc12)NC(=O)C(Cc1c[nH]c2ccccc12)NC(=O)OC(C)(C)C (stereo unspecified) (Boc-WWWWWWW-OMe; configuration not given here)
EC50: > 100 µM
IC50: 58.9 µM

CC(=O)Oc1ccccc1C(=O)Nc1ccc(S(=O)(=O)c2ccc(NC(=O)c3ccccc3OC(C)=O)cc2)cc1
EC50: > 200 µM
IC50: > 200 µM

O=[N+]([O-])/C=C(\CS(=O)(=O)c1ccccc1)c1ccc2c(c1)OCO2
EC50: > 81.3 µM
IC50: 31.6 µM

O=C(O)CCC(NC(=O)c1ccc(Oc2nc3ccccc3nc2C(=O)O)cc1)C(=O)O (stereo unspecified)
EC50: > 200 µM
IC50: > 200 µM

CCOC(=O)C1=C(C)N(c2ccc(C)cc2)C2=C(C(=O)N(c3ccccc3)C2c2ccccc2)C1c1ccccc1 (stereo unspecified)
EC50: > 5.01 µM
IC50: > 5.01 µM

CC(C)(O)[C@H]1OC2CC[C@@]3(C)C(O)(CC[C@H]4Cc5c([nH]c6ccccc56)C43C)C2=CC1=O (stereo partly specified)
EC50: > 200 µM
IC50: 13.8 µM

CC(C)OC(=O)[C@H]1ON2O[C@H](O[C@@H]3CCCC[C@H]3c3ccccc3)C([Si](C)(C)c3ccccc3)[C@H]3OC(=O)[C@@H]1C32 (stereo partly specified)
EC50: > 200 µM
IC50: 158 µM

Cc1cccc2c1N(C(=O)/C=C\C(=O)O)C(c1c(C)[nH]c3ccccc13)C2 (stereo unspecified)
EC50: > 138 µM
IC50: 75.9 µM

Cc1cn(CC(=O)NCCCO)c(=O)[nH]c1=O
EC50: > 200 µM
IC50: > 200 µM

Cc1ccc(Nc2ccc3c4c(cc(=O)n3C)-c3ccccc3C(=O)c24)c(S(=O)(=O)O)c1
EC50: > 174 µM
IC50: > 174 µM

CC(C)(C)OC(=O)C1/C(=C/CO)CN1C(=O)OC(C)(C)C (stereo unspecified)
EC50: > 200 µM
IC50: 43.7 µM

COP(=O)(CCC1OCCO1)OC
EC50: > 200 µM
IC50: > 200 µM

Cn1c(=O)cc(NNc2ccc(Br)cc2)[nH]c1=O
EC50: > 200 µM
IC50: 6.17 µM

NC(=S)NN=C1CSSC1
EC50: > 200 µM
IC50: 11.7 µM

CCNc1nnc(CSc2nc(-c3ccccc3)c(-c3ccccc3)[nH]2)s1
EC50: > 25.1 µM
IC50: 12.9 µM

Clc1ccc(Oc2ccc(N=Cc3ccc(Cl)cc3Cl)cc2Cl)cc1
EC50: > 200 µM
IC50: 5.37 µM

C=C(C)CCC1CC=[N+]([O-])OC1C(C)(C)C (stereo unspecified)
EC50: > 200 µM
IC50: 28.8 µM

C[C@]12CC[C@H](OC3OC(CO)C(O)C(O)C3O)C[C@H]1CC[C@@H]1[C@@H]2CC[C@]2(C)[C@@H](C3=CCOC3=O)CC[C@]12O (stereo partly specified)
EC50: > 100 µM
IC50: 0.0661 µM

CCOC(=O)NC(NC1=NCCS1)(C(=O)OCC)C(F)(F)F (stereo unspecified)
EC50: > 200 µM
IC50: 191 µM

CC(=O)[O-].CC(=O)[O-].CC(=O)[O-].CC(=O)[O-].CO.CO.CO.[Rh+2].[Rh+2].c1ccc(-c2ccccn2)nc1
EC50: 145 µM
IC50: 174 µM

— PubChem BioAssay AID179 (DTP/NCI, 2004)
